52 compounds from US8877759B2, “Aminopyrazines as ATR kinase inhibitors” (Vertex Pharnaceuticals Incorporated, priority 2011, dated 2014) can be followed below.

Some results are limits rather than exact numbers.

In the test the target is T1, full-length ATR (Homo sapiens, UniProt Q13535).
T1 construct: Assays were carried out at 25° C. in the presence of 5 nM full-length ATR
Description: ATR Inhibition Assay (radioactive-phosphate incorporation). It is filed as biochemical. Particulars: for ATR Ki: Ki(app), 5 nM full-length ATR, 10 μM [γ-33P]ATP, 800 μM target peptide, 25° C. The method, then: Compounds were screened for their ability to inhibit ATR kinase using a radioactive-phosphate incorporation assay. Assays were carried out in a mixture of 50 mM Tris/HCl (pH 7.5), 10 mM MgCl2 and 1 mM DTT.
Assays were carried out at 25° C. in the presence of 5 nM full-length ATR. An assay stock buffer solution was prepared containing all of the reagents listed above, with the exception of ATP and the test compound of interest. […] The plate was pre-incubated for 10 minutes at 25° C. and the reaction initiated by addition of 15 μL [γ-33P]ATP (final concentration 10 μM).
The reaction was stopped after […] by the addition of 30 μL 0.1M phosphoric acid containing 2 mM ATP. A multiscreen phosphocellulose filter 96-well plate (Millipore, Cat no. MAPHN0B50) was pretreated with 100 μL 0.2M phosphoric acid prior to the addition of 45 μL of the stopped assay mixture. The plate was washed with 5×200 μL 0.2M phosphoric acid.
After removing mean background values for all of the data points, Ki(app) data were calculated from non-linear regression analysis of the initial rate data using the Prism software package (GraphPad Prism version 3.0cx for Macintosh, GraphPad Software, San Diego Calif., USA).

T1 sequence (Q13535 whole entry): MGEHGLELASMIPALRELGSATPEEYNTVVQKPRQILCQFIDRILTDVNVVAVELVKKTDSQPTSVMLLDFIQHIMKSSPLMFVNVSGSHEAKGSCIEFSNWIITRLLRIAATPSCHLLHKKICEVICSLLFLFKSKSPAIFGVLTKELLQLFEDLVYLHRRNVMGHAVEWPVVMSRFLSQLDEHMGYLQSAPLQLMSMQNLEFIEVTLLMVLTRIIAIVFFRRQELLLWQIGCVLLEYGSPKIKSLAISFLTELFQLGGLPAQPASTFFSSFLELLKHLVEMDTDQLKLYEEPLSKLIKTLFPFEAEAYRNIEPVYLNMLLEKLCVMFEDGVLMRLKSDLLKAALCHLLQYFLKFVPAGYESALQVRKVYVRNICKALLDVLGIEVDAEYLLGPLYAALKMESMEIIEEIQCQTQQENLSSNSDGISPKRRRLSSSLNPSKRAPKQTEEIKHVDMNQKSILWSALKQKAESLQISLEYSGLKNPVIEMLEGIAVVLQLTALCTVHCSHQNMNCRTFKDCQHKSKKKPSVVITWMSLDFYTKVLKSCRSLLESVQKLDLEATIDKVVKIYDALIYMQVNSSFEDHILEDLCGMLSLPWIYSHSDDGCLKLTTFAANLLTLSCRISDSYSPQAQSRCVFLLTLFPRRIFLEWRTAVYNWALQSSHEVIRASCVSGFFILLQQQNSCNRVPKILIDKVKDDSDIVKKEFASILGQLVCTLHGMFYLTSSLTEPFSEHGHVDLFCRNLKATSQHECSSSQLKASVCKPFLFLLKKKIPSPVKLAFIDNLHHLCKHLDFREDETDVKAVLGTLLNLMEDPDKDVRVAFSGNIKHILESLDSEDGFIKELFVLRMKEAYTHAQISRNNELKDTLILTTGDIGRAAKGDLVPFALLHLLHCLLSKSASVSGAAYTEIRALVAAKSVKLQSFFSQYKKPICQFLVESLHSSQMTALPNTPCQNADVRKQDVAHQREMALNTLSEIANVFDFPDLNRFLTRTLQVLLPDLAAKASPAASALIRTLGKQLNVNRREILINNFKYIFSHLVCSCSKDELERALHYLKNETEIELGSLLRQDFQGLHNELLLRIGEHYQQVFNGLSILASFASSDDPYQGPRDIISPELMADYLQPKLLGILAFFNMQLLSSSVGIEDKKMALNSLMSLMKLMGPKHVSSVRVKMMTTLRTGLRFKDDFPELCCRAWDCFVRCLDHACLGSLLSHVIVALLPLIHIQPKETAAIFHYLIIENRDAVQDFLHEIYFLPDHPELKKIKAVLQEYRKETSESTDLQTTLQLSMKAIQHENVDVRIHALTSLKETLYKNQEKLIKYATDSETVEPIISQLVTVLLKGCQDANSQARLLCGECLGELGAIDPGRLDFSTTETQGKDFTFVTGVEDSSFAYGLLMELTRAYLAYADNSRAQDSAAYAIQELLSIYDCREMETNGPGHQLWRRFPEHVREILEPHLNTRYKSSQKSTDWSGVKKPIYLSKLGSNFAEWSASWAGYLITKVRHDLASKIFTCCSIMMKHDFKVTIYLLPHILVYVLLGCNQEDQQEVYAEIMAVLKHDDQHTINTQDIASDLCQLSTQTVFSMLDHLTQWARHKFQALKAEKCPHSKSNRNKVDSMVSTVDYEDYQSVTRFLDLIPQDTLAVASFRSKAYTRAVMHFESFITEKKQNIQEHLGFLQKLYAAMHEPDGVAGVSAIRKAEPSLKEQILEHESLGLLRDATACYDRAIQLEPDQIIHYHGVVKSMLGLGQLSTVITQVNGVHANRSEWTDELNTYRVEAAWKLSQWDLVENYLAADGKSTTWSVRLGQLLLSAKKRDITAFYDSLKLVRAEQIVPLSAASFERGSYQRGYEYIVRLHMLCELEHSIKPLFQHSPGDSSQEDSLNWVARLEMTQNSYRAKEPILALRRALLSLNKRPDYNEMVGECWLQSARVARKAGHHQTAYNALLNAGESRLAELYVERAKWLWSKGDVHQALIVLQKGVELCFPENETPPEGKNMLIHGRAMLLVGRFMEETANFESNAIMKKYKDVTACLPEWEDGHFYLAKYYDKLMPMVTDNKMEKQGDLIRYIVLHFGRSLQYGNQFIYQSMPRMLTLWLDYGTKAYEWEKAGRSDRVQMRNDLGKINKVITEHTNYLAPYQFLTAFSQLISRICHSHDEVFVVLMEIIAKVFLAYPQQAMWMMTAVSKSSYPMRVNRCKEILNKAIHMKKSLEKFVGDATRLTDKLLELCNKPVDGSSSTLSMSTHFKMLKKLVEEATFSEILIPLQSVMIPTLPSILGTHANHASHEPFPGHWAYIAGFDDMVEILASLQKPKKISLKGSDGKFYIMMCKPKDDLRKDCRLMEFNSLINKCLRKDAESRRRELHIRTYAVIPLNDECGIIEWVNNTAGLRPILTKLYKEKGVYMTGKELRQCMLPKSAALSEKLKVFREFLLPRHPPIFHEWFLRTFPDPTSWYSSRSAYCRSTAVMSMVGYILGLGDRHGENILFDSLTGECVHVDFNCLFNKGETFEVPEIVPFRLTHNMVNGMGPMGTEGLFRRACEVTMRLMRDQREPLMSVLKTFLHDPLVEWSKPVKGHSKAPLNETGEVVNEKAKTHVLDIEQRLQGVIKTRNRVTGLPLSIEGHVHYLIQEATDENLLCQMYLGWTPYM

As for `CC(C)(C#N)c1cc(-c2cnc(N)c(-c3nnc(-c4ccc5c(c4)CCNC5)o3)n2)ccn1` [Compound I-52, 2-[4-[5-amino-6-[5-(1,2,3,4-tetrahydroisoquinolin-6-yl)-1,3,4-oxadiazol-2-yl]pyrazin-2-yl]-2-pyridyl]-2-methyl-propanenitrile], the “ATR Ki” value was “+++ (Compounds with a Ki value >5 nM but ≦1 nM are marked with “+++.”)”.
`CC(C)(C#N)c1cc(-c2cnc(N)c(-c3cc(-c4ccc(CNC5CCOCC5)cc4)no3)n2)ccn1` [Compound I-53, 2-(4-(5-amino-6-(3-(4-(((tetrahydro-2H-pyran-4-yl)amino)methyl)phenyl)isoxazol-5-yl)pyrazin-2-yl)pyridin-2-yl)-2-methylpropanenitrile]: the Ki (as a rule, a measure of affinity in units of concentration, obtained from inhibition or displacement) was less than 1 nM.
In the case of `CC(C)(C#N)c1cc(-c2cnc(N)c(-c3nnc(-c4ccc5c(c4)CNCC5)o3)n2)ccn1` [Compound I-55], the Ki is less than 1 nM.
Take `CN(C)CCOc1ccc(-c2nnc(-c3nc(-c4ccnc(C(C)(C)C#N)c4)cnc3N)o2)cc1` [Compound I-56]: the Ki is less than 1 nM.
As to `CC(C)(C#N)c1cc(-c2cnc(N)c(-c3nnc(-c4ccc(CCN)cc4)o3)n2)ccn1` [Compound I-57], the Ki is less than 1 nM.
Take `CC(C)(C#N)c1cc(-c2cnc(N)c(-c3nnc(-c4cccc(C5CNCCN5)c4)o3)n2)ccn1` (stereo not shown) [Compound I-58]: the inhibition constant Ki was 5 to 20 nM.
Turning to `CC(C)(C#N)c1cc(-c2cnc(N)c(-c3cc(-c4ccc(C5COCCN5)cc4)no3)n2)ccn1` (stereo not shown) [Compound I-60], the Ki was less than 1 nM.
On to `CC(C)(C#N)c1cc(-c2cnc(N)c(-c3nnc(-c4ccc(N5CCCC(N)C5)cc4)o3)n2)ccn1` (stereo not shown) [Compound I-61], for which the inhibitory constant (Ki) was less than 1 nM.
Turning to `CC(C)(C(=O)NCCN)c1cc(-c2cnc(N)c(-c3cc(-c4ccccc4)no3)n2)ccn1` [Compound I-63], the Ki was less than 1 nM.
For the compound `CC(C)(C#N)c1cc(-c2cnc(N)c(-c3nnc(-c4ccc(N5CCC[C@H](N)C5)cc4)o3)n2)ccn1` [Compound I-64], the “ATR Ki” value was “+++ (Compounds with a Ki value >5 nM but ≦1 nM are marked with “+++.”)”.
As for `CNCCNC(=O)C(C)(C)c1cc(-c2cnc(N)c(-c3cc(-c4ccccc4)no3)n2)ccn1` [Compound I-65], the Ki lay within 5 to 20 nM.
On to `CC(C)(C#N)c1cc(-c2cnc(N)c(-c3nnc(-c4cccc(CCN)c4)o3)n2)ccn1` [Compound I-66], for which the Ki is less than 1 nM.
`COCC(CO)CNCc1ccc(-c2cc(-c3nc(-c4ccnc(C(C)(C)C#N)c4)cnc3N)on2)cc1` (stereo not shown) [Compound I-67]: the Ki was less than 1 nM.
Consider `CC(C)(C#N)c1cc(-c2cnc(N)c(-c3nnc(-c4ccc(N5CCCC5CN)cc4)o3)n2)ccn1` (stereo not shown) [Compound I-68], for which the Ki fell in the range of 5 to 20 nM.
On to `CC(C)(C#N)c1cc(-c2cnc(N)c(-c3nnc(-c4ccc(OCCN5CCCC5)cc4)o3)n2)ccn1` [Compound I-69], for which the Ki was less than 1 nM.
Regarding `CC(C)(C#N)c1cc(-c2cnc(N)c(-c3nnc(-c4ccc(F)cc4NCCN)o3)n2)ccn1` [Compound I-70], the Ki is less than 1 nM.
`CC(C)(C#N)c1cc(-c2cnc(N)c(-c3cc(-c4ccc([C@H]5COCCN5)cc4)no3)n2)ccn1` [Compound I-71]: the “ATR Ki” value is “+++ (Compounds with a Ki value >5 nM but ≦1 nM are marked with “+++.”)”.
Regarding `CN(CCN)c1ccc(-c2nnc(-c3nc(-c4ccnc(C(C)(C)C#N)c4)cnc3N)o2)cc1` [Compound I-72], the “ATR Ki” value is “+++ (Compounds with a Ki value >5 nM but ≦1 nM are marked with “+++.”)”.
With `CC(C)(C#N)c1cc(-c2cnc(N)c(-c3nnc(-c4ccc(N5CCNCC5)cc4)o3)n2)ccn1` [Compound I-73], the Ki is less than 1 nM.
`N#CC1(c2cc(-c3cnc(N)c(-c4cc(-c5ccccc5)no4)n3)ccn2)CN2CCC1CC2` (stereo not shown) [Compound I-74]: the Ki was less than 1 nM.
As to `CC(C)(C#N)c1cc(-c2cnc(N)c(-c3nnc(-c4ccc(NCCN)cc4F)o3)n2)ccn1` [Compound I-75], the Ki lay within 5 to 20 nM.
Regarding `CC(C)(C#N)c1cc(-c2cnc(N)c(-c3nnc(-c4ccc(N5CCC(N)CC5)cc4)o3)n2)ccn1` [Compound I-76], the “ATR Ki” value is “+++ (Compounds with a Ki value >5 nM but ≦1 nM are marked with “+++.”)”.
On to `CC(C)(C#N)c1cc(-c2cnc(N)c(-c3nnc(-c4cccc(N5CC[C@@H](N)C5)c4)o3)n2)ccn1` [Compound I-77], for which the Ki was less than 1 nM.
As for `CNCCN(C)c1ccc(-c2nnc(-c3nc(-c4ccnc(C(C)(C)C#N)c4)cnc3N)o2)cc1` [Compound I-78], the inhibition constant Ki is less than 1 nM.
Consider `CC(C)(C#N)c1cc(-c2cnc(N)c(-c3nnc(-c4ccc(C5CCCN5)cc4)o3)n2)ccn1` (stereo not shown) [Compound I-79], for which the Ki was less than 1 nM.
`CC(C)(C#N)c1cc(-c2cnc(N)c(-c3nnc(-c4ccc(C5CNC5)cc4)o3)n2)ccn1` [Compound I-80]: the “ATR Ki” value is reported as “+++ (Compounds with a Ki value >5 nM but ≦1 nM are marked with “+++.”)”.
On the same count and under the same terms, the same measure for `CC(C)(C#N)c1cc(-c2cnc(N)c(-c3nnc(-c4ccc5c(c4)CNC5)o3)n2)ccn1` [Compound I-81]: “+++ (Compounds with a Ki value >5 nM but ≦1 nM are marked with “+++.”)”.
Turning to `CC(C)(C#N)c1cc(-c2cnc(N)c(-c3nnc(-c4ccc(C5CNCCN5)cc4)o3)n2)ccn1` (stereo not shown) [Compound I-82], the “ATR Ki” value is recorded as “+++ (Compounds with a Ki value >5 nM but ≦1 nM are marked with “+++.”)”.
As for `CC(C)(C#N)c1cc(-c2cnc(N)c(-c3nnc(-c4cccc(NC5CNC5)c4)o3)n2)ccn1` [Compound I-84], the “ATR Ki” value is recorded as “+++ (Compounds with a Ki value >5 nM but ≦1 nM are marked with “+++.”)”.
Take `CN(C)CCNC(=O)C(C)(C)c1cc(-c2cnc(N)c(-c3cc(-c4ccccc4)no3)n2)ccn1` [Compound I-85]: the Ki lay in the range of 5 to 20 nM.
For `CN1CCN(c2ccc(-c3nnc(-c4nc(-c5ccnc(C(C)(C)C#N)c5)cnc4N)o3)cc2)CC1` [Compound I-86], the “ATR Ki” value is “+++ (Compounds with a Ki value >5 nM but ≦1 nM are marked with “+++.”)”.
For the compound `COC[C@@H](N)c1ccc(-c2nnc(-c3nc(-c4ccnc(C(C)(C)C#N)c4)cnc3N)o2)cc1` [Compound I-87], the Ki was less than 1 nM.
As for `CC(C)(C#N)c1cc(-c2cnc(N)c(-c3nnc(-c4ccc(N5CC[C@H](N)C5)cc4)o3)n2)ccn1` [Compound I-88], the Ki is less than 1 nM.
Consider `CC(C)(C#N)c1cc(-c2cnc(N)c(-c3nnc(-c4cccc(C5CCCN5)c4)o3)n2)ccn1` (stereo not shown) [Compound I-89], for which the Ki fell in the range of 5 to 20 nM.
Same read-out and setting: for `CC(C)(C#N)c1cc(-c2cnc(N)c(-c3nnc(-c4cccc(N5CC[C@H](N)C5)c4)o3)n2)ccn1` [Compound I-90] the value was less than 1 nM; for `CCCN(CCN(C)C)C(=O)c1cc(-c2cnc(N)c(-c3cc(-c4ccccc4)no3)n2)ccn1` [Compound I-91], 5 to 20 nM.
As to `CC(C)(C#N)c1cc(-c2cnc(N)c(-c3cc(-c4ccc(CNC5CCCOC5)cc4)no3)n2)ccn1` (stereo not shown) [Compound I-93], the Ki is less than 1 nM.
Same read-out and setting: for `N#CC1(c2cc(-c3cnc(N)c(-c4nnc(-c5ccccc5)o4)n3)ccn2)CCNCC1` [Compound I-94] the value was 5 to 20 nM.
Regarding `CC(C)(C#N)c1cc(-c2cnc(N)c(-c3nnc(-c4cccc(C5CNC5)c4)o3)n2)ccn1` [Compound I-95], the “ATR Ki” value is “+++ (Compounds with a Ki value >5 nM but ≦1 nM are marked with “+++.”)”.
`CC(C)(C#N)c1cc(-c2cnc(N)c(-c3nnc(-c4cc5c(s4)CCNC5)o3)n2)ccn1` [Compound I-96]: the Ki was less than 1 nM.
The same measure, in the same setting: for `CC(C)(C#N)c1cc(-c2cnc(N)c(-c3cc(-c4ccc(CN[C@H]5CCOC5)cc4)no3)n2)ccn1` [Compound I-97] the value was less than 1 nM; for `CC(C)(C#N)c1cc(-c2cnc(N)c(-c3nnc(-c4ccc(C5COCCN5)cc4)o3)n2)ccn1` (stereo not shown) [Compound I-99], 20 to 100 nM.
On to `CN1CCN(Cc2ccc(-c3nnc(-c4nc(-c5ccnc(C(C)(C)C#N)c5)cnc4N)o3)cc2)CC1` [Compound I-100], for which the Ki was in the range of 5 to 20 nM.
With `N#CC1(c2cc(-c3cnc(N)c(-c4nnc(-c5cccs5)o4)n3)ccn2)CCNCC1` [Compound I-101], the “ATR Ki” value was “+++ (Compounds with a Ki value >5 nM but ≦1 nM are marked with “+++.”)”.
Turning to `CC(C)(C#N)c1cc(-c2cnc(N)c(-c3cc(-c4ccc(CNCC5COC5)cc4)no3)n2)ccn1` [Compound I-102], the Ki was less than 1 nM.
With `CN(C)CCNc1ccc(-c2nnc(-c3nc(-c4ccnc(C(C)(C)C#N)c4)cnc3N)o2)c(F)c1` [Compound I-103], the Ki was in the range of 20 to 100 nM.
For `CC(C)(C#N)c1cc(-c2cnc(N)c(-c3nnc(-c4ccc(NCC5CNC5)cc4)o3)n2)ccn1` [Compound I-104], the Ki was less than 1 nM.
As to `CC(C)(C#N)c1cc(-c2cnc(N)c(-c3nnc(-c4ccc(CNCC5COC5)cc4)o3)n2)ccn1` [Compound I-105], the Ki is less than 1 nM.
As for `CC(C)(C#N)c1cc(-c2cnc(N)c(-c3nnc(-c4ccc(O[C@H]5CCNC5)cc4)o3)n2)ccn1` [Compound I-106], the “ATR Ki” value is “+++ (Compounds with a Ki value >5 nM but ≦1 nM are marked with “+++.”)”.
Turning to `CC(C)(C#N)c1cc(-c2cnc(N)c(-c3nnc(-c4ccc(NC5CNC5)cc4)o3)n2)ccn1` [Compound I-107], the Ki is less than 1 nM.
On the same count and under the same terms, the same measure for `CN(C)CCNc1cc(F)ccc1-c1nnc(-c2nc(-c3ccnc(C(C)(C)C#N)c3)cnc2N)o1` [Compound I-108]: less than 1 nM.
As to `CC(C)(C#N)c1cc(-c2cnc(N)c(-c3nnc(-c4ccc(C5CCNCC5)cc4)o3)n2)ccn1` [Compound I-109], the “ATR Ki” value is on record as “+++ (Compounds with a Ki value >5 nM but ≦1 nM are marked with “+++.”)”.
